What was measured:
p21 = experiment: Western blot of p21 expression in HUVECs; type: cell-based, human; details: late stage HUVECs (PDL9)
Description: HUVECs were cultured in M199 medium supplemented with 4-(2-hydroxyethyl)-1-piperazineethanesulfonic acid (HEPES), endothelial cell growth supplement (ECGS; Millipore), heparin, NaHCO3, L-glutamine, sodium pyruvate, and 20% fetal bovine serum (FBS; final concentration). HaCaT cells were cultured in DMEM supplemented with 10% FBS and 2 mM glutamine. The cells were grown in an atmosphere of 5% CO2 at 37° C., and passaged to maintain under 90% confluency. The cells were propagated until senescence, and those in every passage were collected for further analysis, numbers of which were determined when sub-cultured. Population doublings (PDs) were estimated following the equation: PDL=3.32 (log(total viable cells at harvest/total viable cells at seeding). The cells were harvested and lysed in RIPA lysis buffer containing 1% of Triton X-100 and a protease inhibitor cocktail, and total protein concentrations were measured with a protein assay kit. Proteins in the samples of the lysates with the same amounts of total protein were separated by sodium dodecyl sulfate polyacrylamide gel electrophoresis (SDS-PAGE) (10% polyacrylamide gels) and analyzed by immunoblotting. Primary antibodies against p21 and β-actin were applied to detect the corresponding proteins. […] Protein quantification was performed by software.

HaCaT cells [1] = experiment: Intracellular NAD+ content; type: cell-based; details: 5 μM corylin or 20 μM neobavaisoflavone, 24 hours
Description: HaCaT cells were seeded into a 6-cm dish (4×10^5 cells/dish), and incubated with 5 μM corylin or 20 μM neobavaisoflavone, or without drugs, for 24 hours, before being harvested. The harvested cells were extracted with 250 μl of 1 M glacial formic acid saturated with butanol, incubated for 30 minutes on ice. Then, 62.5 μl of 100% TCA (w/v) was added to each sample, and the samples were incubated on ice for an additional 15 minutes. The samples were pelleted by centrifugation at 14,000×g for 5 minutes, and the supernatant was transferred to another eppendorf tube. The pellets were then washed with 125 μl of 20% TCA, and centrifuged, and the supernatant was combined with the aforementioned supernatant. The combined supernatants were used for the following tests. […] After incubation at 30° C. for 20 minutes, the absorbance of each sample was measured at 340 nm. The NAD^+ level of the cells in each supernatant sample was determined by the test sample (the alcohol ADH catalytic group) relative to the corresponding control sample (the water group, as the basal NADH level).

HaCaT cells [2] = experiment: UVB-induced DNA breakage analysis; type: cell-based; details: 100 μM pretreatment 24 hours, UVB 30 mJ/m^2
Description: HaCaT cells were seeded into a 12-well plate (7×10^4 cells/well), and incubated with 100 μM corylin or 100 μM neobavaisoflavone, or without drugs, for 24 hours, before subjected to UVB irradiation at 30 mJ/m^2. The irradiated cells were collected, washed, and mixed with 1% agarose gel solution 140 μl at 35° C., before being applied onto slides. The slides were placed at 4° C. for 1 hour for solidifying the gel, immersed in a lysis buffer for at least 1 hour and subsequently in an electrophoresis fluid for 40 minutes, and then subjected to gel-electrophoresis at 25 V for 20 minutes. The slides were immersed in a neutralizing solution for 5 minutes, mounted with 30 μl mounting medium with DAPI, and observed under a fluorescence microscope. The results were analyzed with the software OPEN COMET to quantify the breakage and the repair of the DNA in the cells.

aged C57BL/6J mice = experiment: Survival of aged mice fed HFD with or without corylin; type: in vivo, mouse; details: corylin supplement 0.1% (w/w) in HFD
Description: (§1) All animal procedures were complied with relevant regulations and were conducted under approved protocols (Protocol #CGU15-150) by Research Guidelines for the Care and Use of Laboratory Animals, Chang Guan University. C57BL/6J male mice (34 weeks of age) were maintained at 23±1° C. and at humidity of 45-65% with a 12 h dark/light cycle. After reaching 40 weeks of age, the mice were randomly divided into two groups: Group I (HFD), fed a HFD with 54% fat (n=30), and Group II (HFD/C), fed a HFD containing corylin (1 g corylin/1 kg HFD) (or the dose of corylin was 50 mg/kg) (n=30).
(§2) The ability of corylin to delay the aging process in mice was examined in the present example. To this purpose, aged C57BL/6J mice (forty-week-old) were fed with a HFD or a HFD plus 0.1% (w/w) corylin (HFD/C) ad libitum for the rest of their lives.

HUVECs [3] = experiment: Population doubling level (PDL) of HUVECs; type: cell-based, human
Description: HUVECs were cultured in M199 medium supplemented with 4-(2-hydroxyethyl)-1-piperazineethanesulfonic acid (HEPES), endothelial cell growth supplement (ECGS; Millipore), heparin, NaHCO3, L-glutamine, sodium pyruvate, and 20% fetal bovine serum (FBS; final concentration). HaCaT cells were cultured in DMEM supplemented with 10% FBS and 2 mM glutamine. The cells were grown in an atmosphere of 5% CO2 at 37° C., and passaged to maintain under 90% confluency. The cells were propagated until senescence, and those in every passage were collected for further analysis, numbers of which were determined when sub-cultured.

HUVECs [4] = experiment: Senescence-associated (SA)-β-gal staining of HUVECs; type: cell-based, human; details: late stage HUVECs (PDL9), vs control without corylin
Description: HUVECs at 90% confluency were collected, washed, and fixed with 2% formaldehyde and 0.2% glutaraldehyde for 5 minutes. The cells were then subjected to staining by incubation with a staining solution (40 mmol/l citric acid, sodium phosphate, pH 6.0, 1 mg/ml 5-bromo-4-chloro-3-isolyl-β-D-galactoside (X-gal, Sigma), 5 mmol/l potassium ferrocyanide, 5 mmol/l potassium ferricyanide, 150 mmol/l NaCl, and 2 mmol/l MgCl2) at 37° C. for 18 hours. The results of SA-β-gal-positive cells were observed by microscopy, and were counted for over 300 cells in at least three independent fields.

[5] = Body weight and food intake of aged HFD-fed mice; type: in vivo, mouse; details: entire course of the experiment
Description: as §1, §2

[6] = Pharmacokinetic analysis, serum level after corylin oral gavage; type: in vivo, mouse; details: mice
Description: The blood samples of the C57BL/6J male mice (n=4) were collected at 1, 3, 6, 9, 12 and 15 h after corylin oral gavage, and the serum samples were then separated therefrom. Each serum sample (100 μl) was mixed with ice-cold acetonitrile (150 μl) at 4° C. for 1 hour, and then centrifuged at 15,000×g and 4° C. for 15 min. After centrifugation, the supernatant (150 μl) was harvested, and 150 μl ddH2O was added. The resulting mixture was analyzed by a LC/FTMS system.

HaCaT cells [7] = experiment: UVB-induced apoptosis analysis (crystal violet); type: cell-based; details: 5 μM corylin or 20 μM neobavaisoflavone 4 hours, UVB 14 mJ/m^2 four runs
Description: HaCaT cells were seeded into a 12-well plate (7×10^4 cells/well), and incubated with 5 μM corylin or 20 μM neobavaisoflavone, or without drugs, for 4 hours, before subjected to UVB irradiation at 14 mJ/m^2 for four runs. At 24 hours, the irradiated cells were collected, washed, and fixed with 4% paraformaldehyde, before being immersed in 0.5% crystal violet solution for 15 minutes at room temperature. The cells were washed, air-dried, photographed, and immersed in 50% ethanol containing 0.1% glacial acetic acid to remove the crystal violet dye. The absorbance at 550 nm was read by a microplate reader.

concentration at 1 h ([6]; male, C57BL/6J, mouse, serum, 1 hour after oral gavage)	concentration at 3 h ([6]; male, C57BL/6J, mouse, serum, 3 hours after oral gavage)	concentration at 6 h ([6]; male, C57BL/6J, mouse, serum, 6 hours after oral gavage)	concentration at 9 h ([6]; male, C57BL/6J, mouse, serum, 9 hours after oral gavage)	concentration at 12 h ([6]; male, C57BL/6J, mouse, serum, 12 hours after oral gavage)	concentration at 15 h ([6]; male, C57BL/6J, mouse, serum, 15 hours after oral gavage)	concentration at 12 h ([6]; 1 hour after oral gavage)	concentration at 12 h ([6]; 15 hours after oral gavage)	SMILES	expression level of p21 (p21)	intracellular NAD+ level (HaCaT cells [1])	UVB-induced DNA breakage (HaCaT cells [2])	lifespan of aged mice fed on high fat diet (aged C57BL/6J mice)	population doubling level (PDL) of HUVECs (HUVECs [3])	number of SA-β-gal-positive senescent cells (HUVECs [4])	trajectory of body weight vs HFD group [5]	trajectory of food intake vs HFD group [5]	survival rate of the cell under UVB irradiation (HaCaT cells [7])
680 nM	500 nM	490 nM	540 nM	390 nM	260 nM	680 nM	260 nM	CC1(C)C=Cc2cc(-c3coc4cc(O)ccc4c3=O)ccc2O1 [corylin]	decreased	elevate	completely suppressed	significantly increased	increase	decrease	did not diverge	did not diverge	significantly increased
–	–	–	–	–	–	–	–	CC(C)=CCc1cc(-c2coc3cc(O)ccc3c2=O)ccc1O [neobavaisoflavone]	–	elevate	completely suppressed	–	–	–	–	–	significantly increased

Reference: patent US20240091191A1, “USES OF CORYLIN AND/OR NEOBAVAISOFLAVONE IN TREATING SYMPTOMS ASSOCIATED WITH SENESCENCE” (Chang Gung University, priority 2022, published 2024)
